Results: patent US6469028B1, “Synthesis and use of retinoid compounds having negative hormone and/or anatgonist activities” (Allergan, Inc., priority 1995, dated 2002)

How the values were obtained:
Experiment in all cases: Holoreceptor transactivation assay
Format in all cases: cell-based
Set-up in all cases: expressed in transfected cells; host or cells: CV1 cells
RARα = biological target: T1, RARα (Homo sapiens, UniProt P10276); conditions: relative to all trans retinoic acid; read-out: Transactivation Assay Efficacy (% of RA activity) RARα
T1 sequence (P10276 1-462): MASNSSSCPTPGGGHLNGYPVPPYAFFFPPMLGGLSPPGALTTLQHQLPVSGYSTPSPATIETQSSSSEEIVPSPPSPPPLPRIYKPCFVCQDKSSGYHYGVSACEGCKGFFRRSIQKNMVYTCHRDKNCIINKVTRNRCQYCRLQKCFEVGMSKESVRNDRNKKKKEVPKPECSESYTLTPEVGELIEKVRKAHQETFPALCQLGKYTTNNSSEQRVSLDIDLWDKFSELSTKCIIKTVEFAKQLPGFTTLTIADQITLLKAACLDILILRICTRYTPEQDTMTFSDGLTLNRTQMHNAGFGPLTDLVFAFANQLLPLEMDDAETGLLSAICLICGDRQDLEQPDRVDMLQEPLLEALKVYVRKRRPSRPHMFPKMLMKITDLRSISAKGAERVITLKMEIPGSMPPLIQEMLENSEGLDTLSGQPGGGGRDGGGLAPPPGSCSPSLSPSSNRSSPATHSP
Source text: (§1) A holoreceptor transactivation assay and a ligand binding assay which measure the antagonist/agonist like activity of the compounds of the invention, or their ability to bind to the several retinoid receptor subtypes, respectively, are described in published PCT Application No. WO93/11755 (particularly on pages 30-33 and 37-41) published on Jun. 24, 1993, the specification of which is also incorporated herein by reference. A description of the holoreceptor transactivation assay is also provided below.
(§2) CV1 cells (5,000 cells/well) were transfected with an RAR reporter plasmid MTV-TREp-LUC (50 ng) along with one of the RAR expression vectors (10 ng) in an automated 96-well format by the calcium phosphate procedure of Heyman et al. Cell 68: 397-406. For RXR-α and RXR-γ transactivation assays, an RXR-responsive reporter plasmid CRBPII-tk-LUC (50 ng) along with the appropriate RXR expression vectors (10 ng) was used substantially as described by Heyman et al. above, and Allegretto et al. J. Biol. Chem. 268: 26625-26633. For RXR-β transactivation assays, an RXR-responsive reporter plasmid CPRE-tk-LUC ([…]) along with RXR-β expression vector ([…]) was used as described in above. These reporters contain DRI elements from human CRBPII and certain DRI elements from promotor, respectively (see Mangelsdorf et al. The Retinoids: Biology Chemistry and Medicine, pp. 319-349, Raven Press Ltd., New York and Heyman et al., cited above). A β-galactosidase (50 ng) expression vector was used as an internal control in the transfections to normalize for variations in transfection efficiency. The cells were transfected in triplicate for 6 hours, followed by incubation with retinoids for 36 hours, and the extracts were assayed for luciferase and […] activities. The detailed experimental procedure for holoreceptor transactivations has been described in Heyman et al. above, and Allegretto et al. cited above. The results obtained in this assay are expressed in EC50 numbers, as they are also in the chimeric receptor transactivation assay. The Heyman et al. Cell 68: 397-406, Allegretto et al. J. Biol. Chem. 268: 26625-26633, and Mangelsdorf et al. The Retinoids: Biology, Chemistry, and Medicine, pp. 319-349, Raven Press Ltd., New York, are expressly incorporated herein by reference. The results of ligand binding assay are expressed in Kd numbers. (See Cheng et al. Biochemical Pharmacology 22: 3099-3108, expressly incorporated herein by reference.)
(§3) A compound should not cause significant activation of a reporter gene through a given receptor subtype (RAR-α, RAR-β or RAR-γ) in the holoreceptor transactivation assay, in order to qualify as an RAR antagonist with utility in the present invention.

RARβ = biological target: T2, RARβ (Homo sapiens, UniProt P10826); conditions: relative to all trans retinoic acid; read-out: Transactivation Assay Efficacy (% of RA activity) RARβ
T2 sequence (P10826 1-448 isoform P10826-2): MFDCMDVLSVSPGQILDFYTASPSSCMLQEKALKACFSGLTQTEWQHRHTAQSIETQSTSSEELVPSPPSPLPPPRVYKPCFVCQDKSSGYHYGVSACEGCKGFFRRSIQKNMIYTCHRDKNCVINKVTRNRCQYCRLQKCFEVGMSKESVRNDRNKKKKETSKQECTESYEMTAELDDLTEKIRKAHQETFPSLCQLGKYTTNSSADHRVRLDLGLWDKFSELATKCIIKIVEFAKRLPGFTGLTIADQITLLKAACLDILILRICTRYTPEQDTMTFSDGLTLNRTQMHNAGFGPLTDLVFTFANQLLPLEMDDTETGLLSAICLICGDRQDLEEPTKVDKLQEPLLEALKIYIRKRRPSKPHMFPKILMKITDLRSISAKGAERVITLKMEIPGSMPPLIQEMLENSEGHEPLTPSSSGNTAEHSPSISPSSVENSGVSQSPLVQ
Source text: as §1, §2, §3

RARγ = biological target: T3, RARγ (Homo sapiens, UniProt P13631); conditions: relative to all trans retinoic acid; read-out: Transactivation Assay Efficacy (% of RA activity) RARγ
T3 sequence (P13631 1-454): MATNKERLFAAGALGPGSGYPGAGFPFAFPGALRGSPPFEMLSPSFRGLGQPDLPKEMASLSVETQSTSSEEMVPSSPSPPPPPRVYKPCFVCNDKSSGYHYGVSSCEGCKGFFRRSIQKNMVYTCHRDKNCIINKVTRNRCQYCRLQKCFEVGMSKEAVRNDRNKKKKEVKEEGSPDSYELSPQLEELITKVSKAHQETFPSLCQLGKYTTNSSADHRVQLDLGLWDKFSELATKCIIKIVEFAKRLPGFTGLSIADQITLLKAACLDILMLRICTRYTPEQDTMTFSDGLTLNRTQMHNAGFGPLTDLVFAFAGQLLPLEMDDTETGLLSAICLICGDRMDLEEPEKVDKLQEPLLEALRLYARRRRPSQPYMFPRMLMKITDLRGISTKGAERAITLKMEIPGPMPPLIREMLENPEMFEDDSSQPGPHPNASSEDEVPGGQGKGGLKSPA
Source text: as §1, §2, §3

Emax (RARα) [%] | Emax (RARβ) [%] | Emax (RARγ) [%] | SMILES
3 | 4 | 0 | Cc1cccc(C2=CCC(C)(C)c3ccc(C#Cc4ccc(C(=O)O)cc4)cc32)c1 [Compound 20, 4-[(5,6-Dihydro-5,5-dimethyl-8-(3-methylphenyl)-2-naphthalenyl)ethynyl]benzoic acid]
2 | 2 | 2 | CCc1ccc(C2=CCC(C)(C)c3ccc(C#Cc4ccc(C(=O)O)cc4)cc32)cc1 [Compound 21, 4-[(5,6-Dihydro-5,5-dimethyl-8-(4-ethylphenyl)-2-naphthalenyl)ethynyl]benzoic acid]
3 | 7 | 4 | Cc1cc(C)cc(C2=CCC(C)(C)c3ccc(C#Cc4ccc(C(=O)O)cc4)cc32)c1 [Compound 24, 4-[(5 6-Dihydro-5,5-dimethyl-8-(3,5-dimethylphenyl)-2-naphthalenyl)ethynyl]benzoic acid]
1 | 6 | 0 | CC1(C)CC=C(c2cccnc2)c2cc(C#Cc3ccc(C(=O)O)cc3)ccc21 [Compound 26, 4-[(5,6-Dihydro-5,5-dimethyl-8-(3-pyridyl)-2-naphthalenyl)ethynyl]benzoic acid]
9 | 14 | 6 | Cc1ccccc1C1=CCC(C)(C)c2ccc(C#Cc3ccc(C(=O)O)cc3)cc21 [Compound 27, 4-[(5,6-Dihydro-5,5-dimethyl-8-(2-methylphenyl)-2-naphthalenyl)ethynyl]benzoic acid]
0 | 6 | 11 | CC1(C)CC=C(c2ccc(O)cc2)c2cc(C#Cc3ccc(C(=O)O)cc3)ccc21 [Compound 29, 4-[(5,6-Dihydro-5,5-dimethyl-8-(4-hydroxyphenyl)-2-naphthalenyl)ethynyl]benzoic acid]
3 | 5 | 1 | Cc1cnc(C2=CCC(C)(C)c3ccc(C#Cc4ccc(C(=O)O)cc4)cc32)s1 [Compound 30, 4-[(5,6-Dihydro-5,5-dimethyl-8-(5-methylthiazol-2-yl)-2-naphthalenyl)ethynyl]benzoic acid]
1 | 5 | 0 | Cc1ccc(C2=CCC(C)(C)c3ccc(C(=O)Nc4ccc(C(=O)O)cc4)cc32)cc1 [Compound 36, 4-[[(5,6-Dihydro-5,5-dimethyl-8-(4-methylphenyl)-2-naphthalenyl)carbonyl]amino]-benzoic acid]

The remaining lines, values behind:

SMILES | Emax (RARα) [%] | Emax (RARβ) [%] | Emax (RARγ) [%]
Cc1ccc(C2=CCC(C)(C)c3ccc(C#Cc4ccc(C(=O)O)cc4)cc32)cn1 [Compound 18, 4-[(5,6-Dihydro-5,5-dimethyl-8-(2-methyl-5-pyridyl)-2-naphthalenyl)ethynyl]benzoic acid] | 4 | 1 | 0
CC1(C)CC=C(c2ccccn2)c2cc(C#Cc3ccc(C(=O)O)cc3)ccc21 [Compound 19, 4-[(5,6-Dihydro-5,5-dimethyl-8-(2-pyridyl)-2-naphthalenyl)ethynyl]benzoic acid] | 0 | 5 | 3
COc1ccc(C2=CCC(C)(C)c3ccc(C#Cc4ccc(C(=O)O)cc4)cc32)cc1 [Compound 22, 4-[(5,6-Dihydro-5,5-dimethyl-8-(4-methoxyphenyl)-2-naphthalenyl)ethynyl]benzoic acid] | 0 | 0 | 2
CC1(C)CC=C(c2cccc(O)c2)c2cc(C#Cc3ccc(C(=O)O)cc3)ccc21 [Compound 28, 4-[(5,6-Dihydro5,5-dimethyl-8-(3-hydroxyphenyl)-2-naphthalenyl)ethynyl]benzoic acid] | 2 | 10 | 2
Cc1csc(C2=CCC(C)(C)c3ccc(C#Cc4ccc(C(=O)O)cc4)cc32)n1 [Compound 31, 4-[(5,6-Dihydro-5,5-dimethyl-8-(4-methylthiazol-2-yl)-2-naphthalenyl)ethynyl]benzoic acid] | 4 | 14 | 2
Cc1nc(C2=CCC(C)(C)c3ccc(C#Cc4ccc(C(=O)O)cc4)cc32)sc1C [Compound 32] | 0 | 2 | 2
Cc1ccc(C2=CCC(C)(C)c3ccc(C#Cc4ccc(C(=O)O)cc4)cc32)s1 [Compound 34, 4-[(5,6-Dihydro-5,5-dimethyl-8-(5-methyl-2-thienyl)-2-naphthalenyl)ethynyl]benzoic acid] | 3 | 5 | 2
Cc1ccc(C2=CCC(C)(C)c3ccc(C(=O)Oc4ccc(C(=O)O)cc4)cc32)cc1 [Compound 39, 4-[[(5,6-Dihydro-5,5-dimethyl-8-(4-methylphenyl)-2-naphthalenyl)carbonyl]oxy]-benzoic acid] | 1 | 7 | 9
Cc1ccc(C2=CCC(C)(C)c3ccc(C(=O)Nc4ccc(C(=O)O)c(F)c4)cc32)cc1 [Compound 41, 2-Fluoro-4-[[(5,6-dihydro-5,5-dimethyl-8-(4methylphenyl)-2-naphthalenyl)carbonyl]amino]-benzoic acid] | 3 | 5 | 6
Cc1ccc(C2=CCC(C)(C)c3ccc(/C=C/c4ccc(C(=O)O)cc4)cc32)cc1 [Compound 45] | 2 | 0 | 7
Cc1ccc(C2=CCC(C)(C)c3ccc(N=Nc4ccc(C(=O)O)cc4)cc32)cc1 [Compound 46b, 4-[(5,6-dihydro-5,5-dimethyl-8-(4-methylphenyl)-2-naphthalenyl)azo]-benzoic acid] | 4 | 5 | 3
